{"source": "patent US11345700B2", "about": "“Methods of preparing inhibitors of influenza viruses replication” (priority 2013, dated 2022)", "assay_type_in_all_cases": "in vivo, healthy volunteers (humans)", "key": {"[1]": {"test_system": "influenza A/Wisconsin/67/2005 (H3N2) challenge strain virus", "test": "Human live attenuated influenza challenge: nasal viral shedding by TCID50 cell culture assay", "protocol": "(§1) Subjects underwent thrice daily nasal swabs, and kept thrice daily score cards for clinical symptoms from Days 1-7, and were discharged from the facility on Day 8, with safety follow-up at approximately Day 28. Nasal swabs were assayed for influenza virus in cell culture (primary analysis) and by qRT-PCR (secondary analysis).\nAdditional FA group analyses were performed (data not shown)."}, "[2]": {"test_system": "influenza A/Wisconsin/67/2005 (H3N2) challenge strain virus", "test": "Human influenza challenge: nasal influenza shedding by qRT-PCR", "protocol": "as §1"}, "[3]": {"test_system": "influenza A/Wisconsin/67/2005 (H3N2) challenge strain virus", "test": "Human influenza challenge: clinical and influenza-like symptom scores", "protocol": "as §1\nSubjects recorded clinical symptoms three times a day in diaries. An AUC of clinical and influenza-like symptom scores from Day 1 through Day 7 was calculated."}, "[4]": {"details": "Pooled Compound (1) dose groups (N = 52)"}}, "data": [{"smiles": "O=C(O)[C@H]1[C@H]2CC[C@H](CC2)[C@@H]1Nc1nc(-c2c[nH]c3ncc(F)cc23)ncc1F", "note": "[Compound (1)]", "values": [{"measurement": "Viral Shedding by Tissue Culture Peak, mean", "setting": "[1]; 100 mg QD (N = 12)", "value": 2.09, "unit": "log10 TCID50/mL"}, {"measurement": "Viral Shedding by Tissue Culture AUC, median", "setting": "[1]; 400 mg QD (N = 12)", "value": 0.70, "unit": "log10 TCID50 mL*Day"}, {"measurement": "Viral Shedding by Tissue Culture Duration, median", "setting": "[1]; 400 mg QD (N = 12)", "value": 1.60, "unit": "days"}, {"measurement": "Viral Shedding by Tissue Culture Peak, mean", "setting": "[1]; 400 mg QD (N = 12)", "value": 1.73, "unit": "log10 TCID50/mL"}, {"measurement": "Viral Shedding by Tissue Culture AUC, median", "setting": "[1]; 900/600 mg (N = 14)", "value": 3.20, "unit": "log10 TCID50 mL*Day"}, {"measurement": "Viral Shedding by Tissue Culture Duration, median", "setting": "[1]; 900/600 mg (N = 14)", "value": 2.71, "unit": "days"}, {"measurement": "Viral Shedding by Tissue Culture Peak, mean", "setting": "[1]; 900/600 mg (N = 14)", "value": 2.68, "unit": "log10 TCID50/mL"}, {"measurement": "Viral Shedding by Tissue Culture AUC, median", "setting": "[1]; 1200/600 mg (N = 14)", "value": 0.35, "unit": "log10 TCID50 mL*Day"}, {"measurement": "Viral Shedding by Tissue Culture Duration, median", "setting": "[1]; 1200/600 mg (N = 14)", "value": 0.00, "unit": "days"}, {"measurement": "Viral Shedding by Tissue Culture Peak, mean", "setting": "[1]; 1200/600 mg (N = 14)", "value": 1.00, "unit": "log10 TCID50/mL"}, {"measurement": "Viral Shedding by Tissue Culture AUC, median", "setting": "[1]; [4]", "value": 0.65, "unit": "log10 TCID50 mL*Day"}, {"measurement": "Viral Shedding by Tissue Culture Duration, median", "setting": "[1]; [4]", "value": 0.71, "unit": "days"}, {"measurement": "Viral Shedding by Tissue Culture Peak, mean", "setting": "[1]; [4]", "value": 1.87, "unit": "log10 TCID50/mL"}, {"measurement": "Viral Sheeding by qRT-PCR AUC, median", "setting": "[2]; 100 mg QD (N = 12)", "value": 6.05, "unit": "log10 copies/mL*Day"}, {"measurement": "Viral Sheeding by qRT-PCR Duration, median", "setting": "[2]; 100 mg QD (N = 12)", "value": 0.96, "unit": "days"}, {"measurement": "Viral Sheeding by qRT-PCR Peak, mean", "setting": "[2]; 100 mg QD (N = 12)", "value": 4.36, "unit": "log10 TCID50/mL"}, {"measurement": "Viral Sheeding by qRT-PCR AUC, median", "setting": "[2]; 400 mg QD (N = 12)", "value": 4.90, "unit": "log10 copies/mL*Day"}, {"measurement": "Viral Sheeding by qRT-PCR Duration, median", "setting": "[2]; 400 mg QD (N = 12)", "value": 1.36, "unit": "days"}, {"measurement": "Viral Sheeding by qRT-PCR Peak, mean", "setting": "[2]; 400 mg QD (N = 12)", "value": 3.90, "unit": "log10 TCID50/mL"}, {"measurement": "Viral Sheeding by qRT-PCR AUC, median", "setting": "[2]; 900/600 mg (N = 14)", "value": 10.65, "unit": "log10 copies/mL*Day"}, {"measurement": "Viral Sheeding by qRT-PCR Duration, median", "setting": "[2]; 900/600 mg (N = 14)", "value": 2.39, "unit": "days"}, {"measurement": "Viral Sheeding by qRT-PCR Peak, mean", "setting": "[2]; 900/600 mg (N = 14)", "value": 5.08, "unit": "log10 TCID50/mL"}, {"measurement": "Viral Sheeding by qRT-PCR AUC, median", "setting": "[2]; 1200/600 mg (N = 14)", "value": 0.45, "unit": "log10 copies/mL*Day"}, {"measurement": "Viral Sheeding by qRT-PCR Duration, median", "setting": "[2]; 1200/600 mg (N = 14)", "value": 0.00, "unit": "days"}, {"measurement": "Viral Sheeding by qRT-PCR Peak, mean", "setting": "[2]; 1200/600 mg (N = 14)", "value": 2.37, "unit": "log10 TCID50/mL"}, {"measurement": "Viral Sheeding by qRT-PCR AUC, median", "setting": "[2]; [4]", "value": 3.45, "unit": "log10 copies/mL*Day"}, {"measurement": "Viral Sheeding by qRT-PCR Duration, median", "setting": "[2]; [4]", "value": 0.71, "unit": "days"}, {"measurement": "Viral Sheeding by qRT-PCR Peak, mean", "setting": "[2]; [4]", "value": 3.91, "unit": "log10 TCID50/mL"}, {"measurement": "Composite Clinical Symptom AUC, median", "setting": "[3]; 100 mg QD (N = 12)", "value": 1.85, "unit": "Grade*Day"}, {"measurement": "Composite Clinical Symptom Duration, median", "setting": "[3]; 100 mg QD (N = 12)", "value": 3.21, "unit": "days"}, {"measurement": "Composite Clinical Symptom Peak, mean", "setting": "[3]; 100 mg QD (N = 12)", "value": 3.17, "unit": "Grade"}, {"measurement": "Influenza like Symptom AUC, median", "setting": "[3]; 100 mg QD (N = 12)", "value": 1.85, "unit": "Grade*Day"}, {"measurement": "Influenza like Symptom Duration, median", "setting": "[3]; 100 mg QD (N = 12)", "value": 3.21, "unit": "days"}, {"measurement": "Influenza like Symptom Peak, mean", "setting": "[3]; 100 mg QD (N = 12)", "value": 2.75, "unit": "Grade"}, {"measurement": "Composite Clinical Symptom AUC, median", "setting": "[3]; 400 mg QD (N = 12)", "value": 4.70, "unit": "Grade*Day"}, {"measurement": "Composite Clinical Symptom Duration, median", "setting": "[3]; 400 mg QD (N = 12)", "value": 3.34, "unit": "days"}, {"measurement": "Composite Clinical Symptom Peak, mean", "setting": "[3]; 400 mg QD (N = 12)", "value": 2.83, "unit": "Grade"}, {"measurement": "Influenza like Symptom AUC, median", "setting": "[3]; 400 mg QD (N = 12)", "value": 3.80, "unit": "Grade*Day"}, {"measurement": "Influenza like Symptom Duration, median", "setting": "[3]; 400 mg QD (N = 12)", "value": 3.34, "unit": "days"}, {"measurement": "Influenza like Symptom Peak, mean", "setting": "[3]; 400 mg QD (N = 12)", "value": 2.42, "unit": "Grade"}, {"measurement": "Composite Clinical Symptom AUC, median", "setting": "[3]; 900/600 mg (N = 14)", "value": 1.75, "unit": "Grade*Day"}, {"measurement": "Composite Clinical Symptom Duration, median", "setting": "[3]; 900/600 mg (N = 14)", "value": 2.69, "unit": "days"}, {"measurement": "Composite Clinical Symptom Peak, mean", "setting": "[3]; 900/600 mg (N = 14)", "value": 3.71, "unit": "Grade"}, {"measurement": "Influenza like Symptom AUC, median", "setting": "[3]; 900/600 mg (N = 14)", "value": 1.75, "unit": "Grade*Day"}, {"measurement": "Influenza like Symptom Duration, median", "setting": "[3]; 900/600 mg (N = 14)", "value": 2.69, "unit": "days"}, {"measurement": "Influenza like Symptom Peak, mean", "setting": "[3]; 900/600 mg (N = 14)", "value": 3.21, "unit": "Grade"}, {"measurement": "Composite Clinical Symptom AUC, median", "setting": "[3]; 1200/600 mg (N = 14)", "value": 1.95, "unit": "Grade*Day"}, {"measurement": "Composite Clinical Symptom Duration, median", "setting": "[3]; 1200/600 mg (N = 14)", "value": 1.88, "unit": "days"}, {"measurement": "Composite Clinical Symptom Peak, mean", "setting": "[3]; 1200/600 mg (N = 14)", "value": 1.50, "unit": "Grade"}, {"measurement": "Influenza like Symptom AUC, median", "setting": "[3]; 1200/600 mg (N = 14)", "value": 1.75, "unit": "Grade*Day"}, {"measurement": "Influenza like Symptom Duration, median", "setting": "[3]; 1200/600 mg (N = 14)", "value": 1.88, "unit": "days"}, {"measurement": "Influenza like Symptom Peak, mean", "setting": "[3]; 1200/600 mg (N = 14)", "value": 1.36, "unit": "Grade"}, {"measurement": "Composite Clinical Symptom AUC, median", "setting": "[3]; [4]", "value": 2.15, "unit": "Grade*Day"}, {"measurement": "Composite Clinical Symptom Duration, median", "setting": "[3]; [4]", "value": 2.34, "unit": "days"}, {"measurement": "Composite Clinical Symptom Peak, mean", "setting": "[3]; [4]", "value": 2.79, "unit": "Grade"}, {"measurement": "Influenza like Symptom AUC, median", "setting": "[3]; [4]", "value": 2.05, "unit": "Grade*Day"}, {"measurement": "Influenza like Symptom Duration, median", "setting": "[3]; [4]", "value": 2.34, "unit": "days"}, {"measurement": "Influenza like Symptom Peak, mean", "setting": "[3]; [4]", "value": 2.42, "unit": "Grade"}]}]}
